ChEMBL document CHEMBL1833803, “Discovery of 1-amino-5H-pyrido[4,3-b]indol-4-carboxamide inhibitors of Janus kinase 2 (JAK2) for the treatment of myeloproliferative disorders” (J Med Chem, 2011)

Experiments:
[1] = Selectivity ratio of IC50 for JAK3 to IC50 for JAK2
[2] = target: Voltage-gated inwardly rectifying potassium channel KCNH2 (Homo sapiens, UniProt Q12809); experiment: Inhibition of human hERG
[3] = target: CYP3A4 (Homo sapiens, UniProt P08684); experiment: Inhibition of CYP3A4 at 10 uM; type: ADME
CYP3A4, sequence (P08684 whole entry): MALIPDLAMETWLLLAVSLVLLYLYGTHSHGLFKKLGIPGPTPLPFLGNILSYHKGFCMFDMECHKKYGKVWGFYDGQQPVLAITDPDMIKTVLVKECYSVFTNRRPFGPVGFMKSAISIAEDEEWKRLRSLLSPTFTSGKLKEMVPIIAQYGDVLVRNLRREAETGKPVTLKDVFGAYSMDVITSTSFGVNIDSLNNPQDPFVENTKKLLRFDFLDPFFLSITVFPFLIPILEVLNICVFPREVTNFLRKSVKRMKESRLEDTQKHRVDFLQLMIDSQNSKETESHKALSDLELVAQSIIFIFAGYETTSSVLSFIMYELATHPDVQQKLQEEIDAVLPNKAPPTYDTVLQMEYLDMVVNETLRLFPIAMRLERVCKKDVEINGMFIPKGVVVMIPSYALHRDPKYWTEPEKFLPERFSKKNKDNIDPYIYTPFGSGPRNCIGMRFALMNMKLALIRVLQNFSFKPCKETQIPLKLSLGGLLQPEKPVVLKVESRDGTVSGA

[4] = target: T1, Tyrosine-protein kinase JAK2 (Homo sapiens, UniProt O60674); experiment: Inhibition of JAK2-mediated STAT5 phosphorylation in human HEL 92.1.7 irf1-bla cells; type: cell-based
T1 sequence (O60674 whole entry): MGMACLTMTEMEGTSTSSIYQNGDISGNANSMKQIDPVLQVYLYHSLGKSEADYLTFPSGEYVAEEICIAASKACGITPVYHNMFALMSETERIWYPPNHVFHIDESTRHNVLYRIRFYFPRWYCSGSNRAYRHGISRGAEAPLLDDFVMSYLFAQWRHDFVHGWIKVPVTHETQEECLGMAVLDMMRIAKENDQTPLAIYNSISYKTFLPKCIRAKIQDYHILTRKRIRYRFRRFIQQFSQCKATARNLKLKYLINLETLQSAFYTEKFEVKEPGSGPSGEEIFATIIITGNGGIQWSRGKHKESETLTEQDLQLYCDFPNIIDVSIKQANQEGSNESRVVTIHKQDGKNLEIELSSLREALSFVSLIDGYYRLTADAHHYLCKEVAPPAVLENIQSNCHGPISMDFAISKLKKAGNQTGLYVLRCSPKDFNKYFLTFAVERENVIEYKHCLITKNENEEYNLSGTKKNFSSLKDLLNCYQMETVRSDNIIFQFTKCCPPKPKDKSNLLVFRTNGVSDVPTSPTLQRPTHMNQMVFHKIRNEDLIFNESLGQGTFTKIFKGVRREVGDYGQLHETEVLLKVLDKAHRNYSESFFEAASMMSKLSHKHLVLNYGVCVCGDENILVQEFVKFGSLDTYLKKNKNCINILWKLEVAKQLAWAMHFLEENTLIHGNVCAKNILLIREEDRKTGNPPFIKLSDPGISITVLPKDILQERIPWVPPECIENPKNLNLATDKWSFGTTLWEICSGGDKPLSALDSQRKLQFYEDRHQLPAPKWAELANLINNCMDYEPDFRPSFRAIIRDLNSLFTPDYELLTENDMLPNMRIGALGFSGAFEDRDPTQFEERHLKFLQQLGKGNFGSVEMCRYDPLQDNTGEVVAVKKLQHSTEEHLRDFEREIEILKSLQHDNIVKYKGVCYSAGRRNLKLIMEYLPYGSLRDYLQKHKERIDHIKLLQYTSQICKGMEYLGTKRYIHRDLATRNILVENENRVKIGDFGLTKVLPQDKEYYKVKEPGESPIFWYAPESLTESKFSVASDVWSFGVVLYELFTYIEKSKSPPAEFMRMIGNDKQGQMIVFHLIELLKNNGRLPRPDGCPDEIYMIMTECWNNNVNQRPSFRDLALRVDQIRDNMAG

[5] = target: CYP2C9 (Homo sapiens, UniProt P11712); experiment: Inhibition of CYP2C9 at 10 uM; type: ADME
CYP2C9, sequence (P11712 whole entry): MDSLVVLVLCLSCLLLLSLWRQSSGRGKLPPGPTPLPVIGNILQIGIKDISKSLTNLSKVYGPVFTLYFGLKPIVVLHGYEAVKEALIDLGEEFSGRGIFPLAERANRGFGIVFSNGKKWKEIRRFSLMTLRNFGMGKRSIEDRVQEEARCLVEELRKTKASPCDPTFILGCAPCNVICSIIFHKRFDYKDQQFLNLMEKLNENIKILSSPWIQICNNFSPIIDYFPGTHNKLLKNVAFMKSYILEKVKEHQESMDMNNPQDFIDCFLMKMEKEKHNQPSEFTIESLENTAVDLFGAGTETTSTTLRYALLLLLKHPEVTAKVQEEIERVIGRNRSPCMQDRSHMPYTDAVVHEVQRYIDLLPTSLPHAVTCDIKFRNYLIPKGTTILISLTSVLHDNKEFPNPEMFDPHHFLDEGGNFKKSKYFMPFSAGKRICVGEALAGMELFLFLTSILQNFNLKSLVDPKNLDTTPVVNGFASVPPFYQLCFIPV

[6] = target: T1, Tyrosine-protein kinase JAK2; experiment: Inhibition of JAK2 using biotin-EQEDEPEGDYFEWLE- NH2 as substrate
[7] = target: T2, Tyrosine-protein kinase JAK3 (Homo sapiens, UniProt P52333); experiment: Inhibition of JAK3 using biotin-EQEDEPEGDYFEWLE- NH2 as substrate
T2 sequence (P52333 whole entry): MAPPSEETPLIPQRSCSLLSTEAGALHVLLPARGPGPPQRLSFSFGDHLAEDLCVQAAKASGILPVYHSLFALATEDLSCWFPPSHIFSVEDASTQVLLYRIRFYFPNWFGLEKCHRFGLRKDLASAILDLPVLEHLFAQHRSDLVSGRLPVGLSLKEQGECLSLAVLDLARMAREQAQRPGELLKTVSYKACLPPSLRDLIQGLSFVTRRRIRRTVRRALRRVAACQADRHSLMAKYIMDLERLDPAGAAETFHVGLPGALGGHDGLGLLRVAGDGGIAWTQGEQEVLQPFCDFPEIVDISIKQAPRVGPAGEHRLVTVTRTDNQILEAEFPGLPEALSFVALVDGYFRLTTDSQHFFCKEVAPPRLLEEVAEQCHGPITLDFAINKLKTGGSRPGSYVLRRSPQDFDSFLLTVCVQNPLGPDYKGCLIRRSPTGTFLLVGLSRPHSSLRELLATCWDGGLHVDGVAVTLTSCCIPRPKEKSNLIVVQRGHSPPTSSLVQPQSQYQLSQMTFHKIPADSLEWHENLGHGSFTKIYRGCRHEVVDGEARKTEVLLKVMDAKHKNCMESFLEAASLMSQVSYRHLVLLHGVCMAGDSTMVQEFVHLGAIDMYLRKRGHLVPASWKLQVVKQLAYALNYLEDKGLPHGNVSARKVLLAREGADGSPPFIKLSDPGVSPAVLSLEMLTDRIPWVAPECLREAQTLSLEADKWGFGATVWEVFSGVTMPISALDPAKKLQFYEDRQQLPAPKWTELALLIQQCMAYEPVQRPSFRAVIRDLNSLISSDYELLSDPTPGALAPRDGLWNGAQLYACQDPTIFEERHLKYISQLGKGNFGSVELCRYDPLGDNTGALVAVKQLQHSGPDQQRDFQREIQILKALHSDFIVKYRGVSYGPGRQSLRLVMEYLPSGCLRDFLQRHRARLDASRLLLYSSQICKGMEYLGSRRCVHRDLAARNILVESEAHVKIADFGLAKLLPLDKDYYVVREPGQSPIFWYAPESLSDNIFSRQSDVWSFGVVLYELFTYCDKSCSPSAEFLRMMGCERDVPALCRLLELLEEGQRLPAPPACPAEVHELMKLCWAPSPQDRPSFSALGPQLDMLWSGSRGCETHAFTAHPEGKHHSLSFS

[8] = Clearance in rat at 1 mg/kg, iv; type: ADME, organism-based; design: dose 1 mg/kg, route intravenous; details: in vivo
[9] = Half life in rat at 1 mg/kg, iv; type: ADME, organism-based; design: dose 1 mg/kg, route intravenous; details: in vivo
[10] = Metabolic stability in rat hepatocytes assessed as half life; type: ADME, cell-based, Liver, Hepatocyte
[11] = Bioavailability in rat at 1 mg/kg, iv; type: ADME, organism-based; details: in vivo

Voltage-gated inwardly rectifying potassium channel KCNH2, sequence (Q12809 whole entry): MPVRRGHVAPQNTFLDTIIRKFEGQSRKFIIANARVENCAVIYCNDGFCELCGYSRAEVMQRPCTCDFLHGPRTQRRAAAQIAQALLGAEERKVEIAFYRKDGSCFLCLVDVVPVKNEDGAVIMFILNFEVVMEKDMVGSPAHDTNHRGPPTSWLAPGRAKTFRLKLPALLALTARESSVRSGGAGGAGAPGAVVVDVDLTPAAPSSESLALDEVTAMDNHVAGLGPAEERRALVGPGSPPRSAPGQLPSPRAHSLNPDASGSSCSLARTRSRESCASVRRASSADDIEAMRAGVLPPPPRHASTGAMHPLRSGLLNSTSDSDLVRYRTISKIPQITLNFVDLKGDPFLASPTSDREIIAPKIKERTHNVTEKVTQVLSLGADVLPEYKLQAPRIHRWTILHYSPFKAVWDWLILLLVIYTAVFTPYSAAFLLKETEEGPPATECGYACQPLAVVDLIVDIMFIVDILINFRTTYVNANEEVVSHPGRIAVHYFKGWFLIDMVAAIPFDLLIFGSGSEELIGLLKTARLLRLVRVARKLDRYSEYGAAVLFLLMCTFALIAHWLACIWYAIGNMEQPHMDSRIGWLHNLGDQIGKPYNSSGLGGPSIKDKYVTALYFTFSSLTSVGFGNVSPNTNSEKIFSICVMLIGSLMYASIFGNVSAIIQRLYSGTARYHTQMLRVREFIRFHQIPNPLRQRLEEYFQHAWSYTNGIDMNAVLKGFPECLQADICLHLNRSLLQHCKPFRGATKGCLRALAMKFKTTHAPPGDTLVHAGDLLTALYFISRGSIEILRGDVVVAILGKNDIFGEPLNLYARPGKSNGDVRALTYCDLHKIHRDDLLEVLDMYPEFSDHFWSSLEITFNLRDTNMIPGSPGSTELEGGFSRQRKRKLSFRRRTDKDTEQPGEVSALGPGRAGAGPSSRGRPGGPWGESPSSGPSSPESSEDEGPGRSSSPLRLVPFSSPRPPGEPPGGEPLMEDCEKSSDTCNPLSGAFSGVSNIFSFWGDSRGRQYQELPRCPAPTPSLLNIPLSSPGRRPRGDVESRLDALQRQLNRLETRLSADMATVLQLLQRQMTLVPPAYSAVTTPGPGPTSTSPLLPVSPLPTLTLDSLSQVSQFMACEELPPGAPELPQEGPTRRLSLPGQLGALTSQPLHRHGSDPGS

Compound | Ratio IC50 [1] | IC50 [4] | IC50 [6] | IC50 [7] | also measured
NC(=O)c1cnc(NC(C2CC2)C2CC2)c2c1[nH]c1cc(-c3cnc(N)cn3)ccc12 | > 50 | 100 nM | 4 nM | 640 nM | IC50 [2]: 720 nM; inhibition at 10 µM [3]: 65%; inhibition at 10 µM [5]: 46%
NC(=O)c1cnc(N[C@H](C2CC2)C(F)(F)F)c2c1[nH]c1cc(-c3cn[nH]c3)ccc12 | – | 32 nM | 1 nM | 220 nM | inhibition at 10 µM [3]: 68%; clearance [8]: 21 mL/min/kg; inhibition at 10 µM [5]: 61%
NC(=O)c1cnc(N2CCCCC2)c2c1[nH]c1ccc(F)cc12 | > 50 | – | 190 nM | – | –
Cn1cc(-c2ccc3c(c2)[nH]c2c(C(N)=O)cnc(NC(C4CC4)C4CC4)c23)cn1 | > 50 | 130 nM | 2 nM | 280 nM | IC50 [2]: 1700 nM; inhibition at 10 µM [3]: 62%; half-life [9]: 3.2 h; clearance [8]: 22 mL/min/kg; inhibition at 10 µM [5]: 80%
CC(C)C(Nc1ncc(C(N)=O)c2[nH]c3cc(-c4cnn(C)c4)ccc3c12)C1CC1 (stereo not given) | > 50 | 95 nM | 3 nM | 210 nM | –
NC(=O)c1cnc(NC2CCCCC2)c2c1[nH]c1cccc(Cl)c12 | > 50 | – | 110 nM | – | –
NC(=O)c1cnc(NC2CCCC2)c2c1[nH]c1ccc(F)cc12 | > 50 | – | 51 nM | – | –
CC(C)Cn1cc(-c2ccc3c(c2)[nH]c2c(C(N)=O)cnc(N[C@@H](C)C(C)(C)C)c23)cn1 | > 50 | – | 41 nM | – | –
C[C@@H](Nc1ncc(C(N)=O)c2[nH]c3ccc(F)cc3c12)C(C)(C)C | > 50 | – | 210 nM | – | –
NC(=O)c1cnc(NC2CCOCC2)c2c1[nH]c1ccc(F)cc12 | > 50 | – | 18 nM | – | –
C[C@H](Nc1ncc(C(N)=O)c2[nH]c3cc(-c4ccc(Cl)nn4)ccc3c12)C(C)(C)C | > 50 | – | 14 nM | – | –
NC(=O)c1cnc(NC2CCCCC2)c2c1[nH]c1cc(Cl)ccc12 | > 50 | – | 23 nM | – | –
CCCCNc1ncc(C(N)=O)c2[nH]c3ccc(F)cc3c12 | > 50 | – | 49 nM | – | –
NC(=O)c1cnc(NC2CCCCC2)c2c1[nH]c1cc(-c3cc[nH]n3)ccc12 | – | – | 23 nM | – | –
NC(=O)c1cnc(N2CCCC2)c2c1[nH]c1ccc(F)cc12 | > 50 | – | 230 nM | – | –
Cn1cc(-c2ccc3[nH]c4c(C(N)=O)cnc(NC5CCCCC5)c4c3c2)cn1 | > 50 | – | 13 nM | – | –
NC(=O)c1cnc(NC2CCCCC2)c2c1[nH]c1ccccc12 | > 50 | – | 59 nM | – | –
CCCNc1ncc(C(N)=O)c2[nH]c3ccc(F)cc3c12 | > 50 | – | 68 nM | – | –
NC(=O)c1cnc(NC2CCCCCC2)c2c1[nH]c1ccc(F)cc12 | > 50 | – | 19 nM | – | –
C[C@H](Nc1ncc(C(N)=O)c2[nH]c3cc(-c4cnn(C)c4)ccc3c12)C1CC1 | > 50 | 14 nM | 1 nM | 140 nM | half-life [9]: 1 h; half-life [10]: 1.02 h; clearance [8]: 44 mL/min/kg
NC(=O)c1cnc(NC2CCC2)c2c1[nH]c1ccc(F)cc12 | > 50 | – | 83 nM | – | –
C[C@H](Nc1ncc(C(N)=O)c2[nH]c3cc(-c4ccnc(N)n4)ccc3c12)C(C)(C)C | > 50 | – | 12 nM | – | –
CC(C)[C@@H](Nc1ncc(C(N)=O)c2[nH]c3cc(-c4cnn(C)c4)ccc3c12)C(F)(F)F | > 50 | – | 3 nM | 560 nM | –
Cn1cc(-c2ccc3c(c2)[nH]c2c(C(N)=O)cnc(N[C@H](C4CC4)C(F)(F)F)c23)cn1 | – | 41 nM | 0.4 nM | 230 nM | inhibition at 10 µM [3]: 48%; half-life [9]: 4.1 h; bioavailability [11]: 65%; clearance [8]: 14 mL/min/kg; inhibition at 10 µM [5]: 66%

Compound | Ratio IC50 [1] | IC50 [4] | IC50 [6] | IC50 [7] | also measured
NC(=O)c1cnc(NC(C2CC2)C2CC2)c2c1[nH]c1cc(-c3cccnn3)ccc12 | > 50 | 28 nM | 2 nM | 270 nM | –
Cn1cc(-c2ccc3c(c2)[nH]c2c(C(N)=O)cnc(NC4CCCCC4)c23)cn1 | > 50 | – | 5 nM | – | IC50 [2]: 620 nM; inhibition at 10 µM [3]: 75%
NC(=O)c1cnc(NC2CCCCC2)c2c1[nH]c1cc(-c3cn[nH]c3)ccc12 | > 50 | – | 13 nM | – | –
NC(=O)c1cnc(NC(C2CC2)C2CC2)c2c1[nH]c1cc(-c3cnc(N)nc3)ccc12 | > 50 | 29 nM | 1 nM | 220 nM | IC50 [2]: 8200 nM; inhibition at 10 µM [3]: 55%; clearance [8]: 21 mL/min/kg; inhibition at 10 µM [5]: 35%
CC(C)Nc1ncc(C(N)=O)c2[nH]c3ccc(F)cc3c12 | > 50 | – | 100 nM | – | –
Cn1cc(-c2ccc3c(c2)[nH]c2c(C(N)=O)cnc(N[C@@H](C4CC4)C(F)(F)F)c23)cn1 | – | 530 nM | 9 nM | 1900 nM | –
NC(=O)c1cnc(NC2CCCCC2)c2c1[nH]c1cc(-c3ccccc3)ccc12 | > 50 | – | 70 nM | – | –
NC(=O)c1cnc(N[C@H](C2CC2)C(F)(F)F)c2c1[nH]c1cc(-c3ccc(N4CCS(=O)(=O)CC4)nn3)ccc12 | > 50 | 120 nM | 2 nM | 160 nM | clearance [8]: 54 mL/min/kg
NC(=O)c1cnc(NC2CCCCC2)c2c1[nH]c1cc(-c3ccn[nH]3)ccc12 | > 50 | – | – | – | –
NC(=O)c1cnc(N[C@H](C2CC2)C(F)(F)F)c2c1[nH]c1cc(-c3ccc(N)nc3)ccc12 | > 50 | 61 nM | 2 nM | 370 nM | IC50 [2]: 750 nM; inhibition at 10 µM [3]: 65%; clearance [8]: 6 mL/min/kg; inhibition at 10 µM [5]: 41%
C[C@H](Nc1ncc(C(N)=O)c2[nH]c3cc(-c4cnn(C)c4)ccc3c12)C(C)(C)C | > 50 | 370 nM | 5 nM | 350 nM | IC50 [2]: 29000 nM; inhibition at 10 µM [3]: 49%; half-life [10]: 0.25 h
NC(=O)c1cnc(NC2CCCCC2)c2c1[nH]c1ccc(-c3ccccc3)cc12 | > 50 | – | 180 nM | – | –
CCN(c1ncc(C(N)=O)c2[nH]c3ccc(F)cc3c12)C1CCCCC1 | > 50 | – | 2700 nM | – | –
Cn1cc(-c2ccc3c(c2)[nH]c2c(C(N)=O)cnc(N[C@H](C4CCC4)C(F)(F)F)c23)cn1 | > 50 | 350 nM | 12 nM | 1700 nM | –
C[C@H](Nc1ncc(C(N)=O)c2[nH]c3ccc(F)cc3c12)C(C)(C)C | > 50 | – | 52 nM | – | –
NC(=O)c1cnc(NC2CCCCC2)c2c1[nH]c1ccc(F)cc12 | > 50 | – | 17 nM | – | –
NC(=O)c1cnc(NC(C2CC2)C2CC2)c2c1[nH]c1cc(-c3cn[nH]c3)ccc12 | – | 40 nM | 3 nM | 220 nM | inhibition at 10 µM [3]: 66%; clearance [8]: 31 mL/min/kg; inhibition at 10 µM [5]: 80%
CNc1ncc(C(N)=O)c2[nH]c3ccc(F)cc3c12 | > 50 | – | 210 nM | – | –
CC(C)CNc1ncc(C(N)=O)c2[nH]c3ccc(F)cc3c12 | > 50 | – | 74 nM | – | –
C[C@@H](Nc1ncc(C(N)=O)c2[nH]c3cc(-c4cnn(C)c4)ccc3c12)C1CC1 | > 50 | 79 nM | 11 nM | 740 nM | –
C[C@H](Nc1ncc(C(N)=O)c2[nH]c3cc(-c4ccc(N)nn4)ccc3c12)C(C)(C)C | > 50 | – | 10 nM | – | –
CCC(Nc1ncc(C(N)=O)c2[nH]c3cc(-c4cnn(C)c4)ccc3c12)C1CC1 (stereo not given) | > 50 | 45 nM | 2 nM | 170 nM | –
NC(=O)c1cnc(N[C@H](C2CC2)C(F)(F)F)c2c1[nH]c1cc(-c3cnc(N4CCOCC4)nc3)ccc12 | > 50 | 530 nM | 8 nM | 430 nM | clearance [8]: 15 mL/min/kg
